Experimental data as given in patent US5756683A, “Immunological detection method” (Novartis Finance Corporation, priority 1991, dated 1998).

Biological target: MAb 4197-70-12
Test: two-step competitive ELISA; inhibition of MAb binding to carrier-bound antigen (cross-reactivity)
Set-up: species or system mouse (Balb/c)
Details: for I50 (inhibitor concentration that reduces the ELISA signal by 50% in comparison with the control): competitive ELISA; for cross-reactivity: (antigen conc. for 50% inhibition/concentration of the antigen analog for 50% inhibition) × 100: relative to compound of formula (II) = 100
Experimental: [antigen concentration for 50% inhibition (I50)/concentration of the
antigen analogs for 50% inhibition (I50)]×100.
The I50 value can be determined, for example, by means of a competitive ELISA assay (see Example 8).
The detection of a compound of formula (II) can be effected by means of a two-step competitive ELISA test.
BSA-conjugated hapten, prepared in accordance with Example 1.2.1, in a 50 mM sodium carbonate buffer (pH 9.6) (200 ng of BSA-conjugated hapten/100 μl of 50 mM sodium carbonate buffer) is first of all adsorbed on microtitre plates (for example Dynatech, type M 129A) and incubated overnight at a temperature of 4° C.
The plates are then washed five times with PBS buffer enriched with 0.1% (v/v) polysorbate 20 (Tween 20) (PBS Tween).
The remaining free binding sites of the solid carrier material are then blocked by the addition of PBS-BSA in the form of a 1% (w/v) solution. After incubation for two hours at 22° C. the plates are washed again with PBS Tween (0.1%).
50 μl of the supernatant of the previously cloned hybridoma cells (in a dilution of from 1:1000 to 1:2000) or 50 μl of the previously purified monoclonal antibodies (40-120 ng/ml) are incubated a) with 950 μl of a standard solution containing an increasing amount of antigen [compound of formula (II)] or of antigen analog, b) with antigen-containing water samples or c) with antigen-containing soil extracts. [All dilutions are carried out in PBS Tween (0.1%)].
After an incubation period of 1 hour at room temperature (22° C.), 200 μl of the antigen/antibody mixture are added to each well in the microtitre plate and the whole batch is incubated for a further one hour. The wells are then washed five times with PBS Tween (0.1%) and charged with 100 μl/well of goat anti-mouse IgG antibody that is conjugated to alkaline phosphatase (dilution 1:1500), and incubated for a period of 1.5 hours.
After washing again, 150 μl/well of the substrate p-nitrophenyl phosphate dissolved in 1 mg/ml of diethanolamine buffer (1 mM, pH 9.8, enriched with 0.5 mM MgCl2 ×6H2 O) are added to the wells.
The intensity of the colour reaction that has occurred is determined at a wavelength of 405 nm. […] All the samples are determined in triplicate.
In order to determine the amount of antigen [[…]] present in a sample, first of all a calibration curve is produced, B/Bo×100 being plotted against the concentration of inhibitor. (Bo represents the absorption capacity measured without the addition of an antigen inhibitor to the antibody, and B is the absorption capacity when antigen inhibitors at various concentrations are added). The I50 value indicates the concentration of the antigen at which the binding of antibody to the solid phase is inhibited by 50%. The I50 value is determined using an ENZFITTER (Leatherbarrow, Elsevier-Biosoft) curve-calculation program based on a four-parameter logistical curve (Raab GM, 1983) and specially adapted to the prevailing conditions. The quantitative determination of antigen in soil or water samples within the context of ELISA is also carried out using the ENZFITTER program, the adaptation of the curve being based on standards that run on any microtitre plate.
^a) Inhibitor concentration that reduces the ELISA signal by 50% in
comparison with the control.
^b) (antigen conc. for 50% inhibition/concentration of the antigen
analog for 50% inhibition) × 100.

| Compound | I50 (inhibitor concentration that reduces the ELISA signal by 50% in comparison with the control) [ng/mL] | cross-reactivity: (antigen conc. for 50% inhibition/concentration of the antigen analog for 50% inhibition) × 100 [%] | cross-reactivity in words |
| --- | --- | --- | --- |
| COc1nc(C)nc(NC(=O)NS(=O)(=O)c2ccc(O)cc2OCCCl)n1 [A] | > 1000 | < 0.1 |  |
| COc1nc(C)nc(NC(=O)NS(=O)(=O)c2ccccc2OCCCl)n1 [B] | > 1000 | < 0.1 | no cross-reactivity |
| COc1nc(C)nc(NC(=O)NS(=O)(=O)c2ccccc2CCC(F)(F)F)n1 [Compound of formula (II), N-[2-(3,3,3-trifluoropropyl)-phenylsulfonyl]-N'-(4-methoxy-6-methyl-1,3,5-triazin-2-yl)urea] | 0.8 | 100 |  |
| COC(=O)c1ccccc1S(=O)(=O)NC(=O)Nc1nc(OC(F)F)cc(OC(F)F)n1 [D] | > 1000 | < 0.1 |  |
